# Laboratory results reported in US9688695B2, “Imidazothiadiazole and imidazopyrazine derivatives as protease activated receptor 4 (PAR4) inhibitors for treating platelet aggregation” (BRISTOL-MYERS SQUIBB COMPANY, priority 2012, dated 2017).
# Target: PAR4 (Homo sapiens (Human), UniProt Q96RI0)
# Experiment: FLIPR assay in PAR4-expressing HEK293 cells (PAR4 antagonist activity, calcium mobilization)
# Type: cell-based
# Settings: H-Ala-Phe(4-F)-Pro-Gly-Trp-Leu-Val-Lys-Asn-Gly-NH2-induced calcium mobilization
# Method in brief: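 HEK293 EBNA cells stably expressing human PAR4 (also endogenous PAR1) preincubated 30 min at room temperature with compound in HBSS/10 mM HEPES, 0.67% DMSO final. PAR4 agonist peptide then added and intracellular calcium mobilization monitored by fluorescence.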
# Sequence of PAR4 (Q96RI0 18-385): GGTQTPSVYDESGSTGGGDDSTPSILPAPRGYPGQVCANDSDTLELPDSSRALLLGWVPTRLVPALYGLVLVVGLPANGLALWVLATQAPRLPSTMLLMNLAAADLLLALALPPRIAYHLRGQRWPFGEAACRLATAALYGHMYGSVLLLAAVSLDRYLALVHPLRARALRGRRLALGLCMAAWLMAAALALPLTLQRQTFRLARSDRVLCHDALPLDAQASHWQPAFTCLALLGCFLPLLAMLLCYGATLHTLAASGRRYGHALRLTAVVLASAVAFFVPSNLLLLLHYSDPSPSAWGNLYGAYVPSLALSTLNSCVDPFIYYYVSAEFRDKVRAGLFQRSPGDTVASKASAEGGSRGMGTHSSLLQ
row,SMILES,EC50
1,"COc1nn2cc(-c3cc4c(OCc5csc(-c6cccc(C)c6)n5)cc(Cl)cc4o3)nc2s1 [Example 189, 6-(6-Chloro-4-((2-(m-tolyl)thiazol-4-yl)methoxy)benzofuran-2-yl)-2-methoxyimidazo[2,1-b][1,3,4]thiadiazole]",1.3 nM
2,COc1nn2cc(-c3cc4c(OCc5csc(C6(F)CCOCC6)n5)cc(Cl)cc4o3)nc2s1 [Example 190],0.47 nM
3,"COc1nn2cc(-c3cc4c(OCc5csc(-c6ccccc6)n5)cccc4o3)nc2s1 [Example 191, 2-Methoxy-6-(4-((2-phenylthiazol-4-yl)methoxy)benzofuran-2-yl)imidazo[2,1-b][1,3,4]thiadiazole]",2.6 nM
4,"COc1cc(OCc2csc(N3CCOCC3)n2)c2cc(-c3cn4nc([C@H](C)F)sc4n3)oc2c1 [Example 193, (S)-4-(4-(((2-(2-(1-Fluoroethyl)imidazo[2,1-b][1,3,4]thiadiazol-6-yl)-6-methoxybenzofuran-4-yl)oxy)methyl)thiazol-2-yl)morpholine]",0.91 nM
5,"COc1cc(OCc2csc(-c3ccc(C(=O)N(C)C)cc3)n2)c2cc(-c3cn4nc([C@H](C)F)sc4n3)oc2c1 [Example 194, (S)-4-(4-(((2-(2-(1-Fluoroethyl)imidazo[2,1-b][1,3,4]thiadiazol-6-yl)-6-methoxybenzofuran-4-yl)oxy)methyl)thiazol-2-yl)-N,N-dimethylbenzamide]",1.6 nM
6,C[C@H](F)c1nn2cc(-c3cc4c(OCc5csc(-c6ccccc6)n5)cc(F)cc4o3)nc2s1 [Example 195],1.3 nM
7,"COc1cc(OCc2csc(C3(O)CCOCC3)n2)c2cc(-c3cn4nc([C@H](C)F)sc4n3)oc2c1 [Example 196, (S)-4-(4-(((2-(2-(1-Fluoroethyl)imidazo[2,1-b][1,3,4]thiadiazol-6-yl)-6-methoxybenzofuran-4-yl)oxy)methyl)thiazol-2-yl)tetrahydro-2H-pyran-4-ol]",0.46 nM
8,"COc1cc(OCc2csc(C3(F)CCOCC3)n2)c2cc(-c3cn4nc([C@H](C)F)sc4n3)oc2c1 [Example 197, (S)-2-(1-Fluoroethyl)-6-(4-((2-(4-fluorotetrahydro-2H-pyran-4-yl)thiazol-4-yl)methoxy)-6-methoxybenzofuran-2-yl)imidazo[2,1-b][1,3,4]thiadiazole]",0.34 nM
9,"COc1cc(OCc2csc(C3(O)CC(C)OC(C)C3)n2)c2cc(-c3cn4nc([C@H](C)F)sc4n3)oc2c1 (stereo partly drawn) [Example 198, 4-(4-(((2-(2-((S)-1-Fluoroethyl)imidazo[2,1-b][1,3,4]thiadiazol-6-yl)-6-methoxybenzofuran-4-yl)oxy)methyl)thiazol-2-yl)-2,6-dimethyltetrahydro-2H-pyran-4-ol]",0.42 nM
10,"COc1cc(OCc2csc(C3(F)CC(C)OC(C)C3)n2)c2cc(-c3cn4nc([C@H](C)F)sc4n3)oc2c1 (stereo partly drawn) [Example 199, 6-(4-((2-(4-Fluoro-2,6-dimethyltetrahydro-2H-pyran-4-yl)thiazol-4-yl)methoxy)-6-methoxybenzofuran-2-yl)-2-((S)-1-fluoroethyl)imidazo[2,1-b][1,3,4]thiadiazole]",1.1 nM
11,"COc1cc(OCc2nc(C3(O)CCOCC3)sc2C)c2cc(-c3cn4nc([C@H](C)F)sc4n3)oc2c1 [Example 200, (S)-4-(4-(((2-(2-(1-Fluoroethyl)imidazo[2,1-b][1,3,4]thiadiazol-6-yl)-6-methoxybenzofuran-4-yl)oxy)methyl)-5-methylthiazol-2-yl)tetrahydro-2H-pyran-4-ol]",0.51 nM
12,"COc1cc(OCc2csc(-c3ccccc3)n2)c2cc(-c3cn4nc(C)ccc4n3)oc2c1 [Example 203, 4-(((6-Methoxy-2-(6-methylimidazo[1,2-b]pyridazin-2-yl)benzofuran-4-yl)oxy)methyl)-2-phenylthiazole]",0.76 nM
13,"COc1cc(OCc2csc(C3CCSCC3)n2)c2cc(-c3cn4nc(C)ccc4n3)oc2c1 [Example 204, 4-(((6-Methoxy-2-(6-methylimidazo[1,2-b]pyridazin-2-yl)benzofuran-4-yl)oxy)methyl)-2-(tetrahydro-2H-thiopyran-4-yl)thiazole]",0.72 nM
14,"COc1cc(OCc2csc(Cl)n2)c2cc(-c3cn4nc(C)ccc4n3)oc2c1 [Example 206, 2-Chloro-4-(((6-methoxy-2-(6-methylimidazo[1,2-b]pyridazin-2-yl)benzofuran-4-yl)oxy)methyl)thiazole]",12 nM
15,"COc1cc(OCc2csc(N3CCN(C)CC3)n2)c2cc(-c3cn4nc(C)ccc4n3)oc2c1 [Example 207, 4-(((6-Methoxy-2-(6-methylimidazo[1,2-b]pyridazin-2-yl)benzofuran-4-yl)oxy)methyl)-2-(4-methylpiperazin-1-yl)thiazole]",7.7 nM
16,"COc1cc(OCc2csc(-c3ccc(C(F)(F)F)cc3)n2)c2cc(-c3cn4nc(C)ccc4n3)oc2c1 [Example 208, 4-(((6-Methoxy-2-(6-methylimidazo[1,2-b]pyridazin-2-yl)benzofuran-4-yl)oxy)methyl)-2-(4-(trifluoromethyl)phenyl)thiazole]",0.82 nM
17,"COc1cc(OCc2csc(-c3ccc(OC(F)(F)F)cc3)n2)c2cc(-c3cn4nc(C)ccc4n3)oc2c1 [Example 210, 4-(((6-Methoxy-2-(6-methylimidazo[1,2-b]pyridazin-2-yl)benzofuran-4-yl)oxy)methyl)-2-(4-(trifluoromethoxy)phenyl)thiazole]",0.86 nM
18,"COc1cc(OCc2csc(-c3ccncc3)n2)c2cc(-c3cn4nc(C)ccc4n3)oc2c1 [Example 211, 4-(((6-Methoxy-2-(6-methylimidazo[1,2-b]pyridazin-2-yl)benzofuran-4-yl)oxy)methyl)-2-(pyridin-4-yl)thiazole]",0.72 nM
19,"COc1cc(OCc2csc(C3(F)CCOCC3)n2)c2cc(-c3cn4nc(C)ccc4n3)oc2c1 [Example 212, 2-(4-Fluorotetrahydro-2H-pyran-4-yl)-4-(((6-methoxy-2-(6-methylimidazo[1,2-b]pyridazin-2-yl)benzofuran-4-yl)oxy)methyl)thiazole]",0.29 nM
20,COc1cc(OCc2csc(C3CCOCC3)n2)c2cc(-c3cn4nc(C)ccc4n3)oc2c1 [Example 213],3.6 nM
21,COc1ccc(-c2nc(COc3cc(OC)cc4oc(-c5cn6nc(C)ccc6n5)cc34)cs2)cc1 [Example 214],1.2 nM
22,COc1cc(OCc2csc(N3CCOCC3)n2)c2cc(-c3cn4nc(C)ccc4n3)oc2c1 [Example 215],3.3 nM
23,COc1cc(OCc2csc(N3C[C@@H](C)O[C@@H](C)C3)n2)c2cc(-c3cn4nc(C)ccc4n3)oc2c1 [Example 216],0.99 nM
24,COc1cc(OCc2csc(N3CCSCC3)n2)c2cc(-c3cn4nc(C)ccc4n3)oc2c1 [Example 217],0.61 nM

row,SMILES,EC50
1,COc1cc(OCc2csc(N3CCCOCC3)n2)c2cc(-c3cn4nc(C)ccc4n3)oc2c1 [Example 218],0.56 nM
2,COc1cc(OCc2nc(N3CCOCC3)sc2C(F)(F)F)c2cc(-c3cn4nc(C)ccc4n3)oc2c1 [Example 220],0.72 nM
3,COc1cc(OCc2csc(-c3cccc(OC(C)=O)c3)n2)c2cc(-c3cn4nc(C)ccc4n3)oc2c1 [Example 221],1.2 nM
4,COc1cc(OCc2csc(-c3cccc(O)c3)n2)c2cc(-c3cn4nc(C)ccc4n3)oc2c1 [Example 222],0.65 nM
5,COc1cc(OCc2csc(-c3ccc(C(=O)N(C)C)cc3)n2)c2cc(-c3cn4nc(C)ccc4n3)oc2c1 [Example 223],0.62 nM
6,COc1cc(OCc2csc(-c3ccc(C#N)cc3)n2)c2cc(-c3cn4nc(C)ccc4n3)oc2c1 [Example 224],0.75 nM
7,COc1cc(OCc2nc(-c3ccc(C(=O)N(C)C)cc3)sc2C)c2cc(-c3cn4nc(C)ccc4n3)oc2c1 [Example 225],0.54 nM
8,COc1cc(OCc2csc(-c3ccc(COC(C)=O)cc3)n2)c2cc(-c3cn4nc(C)ccc4n3)oc2c1 [Example 226],0.81 nM
9,COc1cc(OCc2nc(-c3ccnc(F)c3)sc2C)c2cc(-c3cn4nc(C)ccc4n3)oc2c1 [Example 227],0.31 nM
10,COc1cc(OCc2csc(-c3ccc(F)nc3)n2)c2cc(-c3cn4nc(C)ccc4n3)oc2c1 [Example 228],0.18 nM
11,COc1cc(OCc2nc(-c3cccc(COC(C)=O)c3)sc2C)c2cc(-c3cn4nc(C)ccc4n3)oc2c1 [Example 229],0.76 nM
12,COc1cc(OCc2nc(-c3cccc(CO)c3)sc2C)c2cc(-c3cn4nc(C)ccc4n3)oc2c1 [Example 230],1.3 nM
13,COc1cc(OCc2csc(-c3ccc(C)nc3)n2)c2cc(-c3cn4nc(C)ccc4n3)oc2c1 [Example 231],1.8 nM
14,COc1cc(OCc2csc(-c3ccncc3)n2)c2cc(-c3cn4nc(C)ccc4n3)oc2c1 [Example 232],0.99 nM
15,COc1cc(OCc2csc(-c3ccc(Cl)nc3)n2)c2cc(-c3cn4nc(C)ccc4n3)oc2c1 [Example 233],2.8 nM
16,COc1cc(OCc2csc(-c3ccc(S(C)(=O)=O)cc3)n2)c2cc(-c3cn4nc(C)ccc4n3)oc2c1 [Example 234],0.66 nM
17,COc1cc(OCc2csc(N3CCC(F)(F)CC3)n2)c2cc(-c3cn4nc(C)ccc4n3)oc2c1 [Example 235],0.44 nM
18,COc1cc(OCc2csc(N3CCN(S(C)(=O)=O)CC3)n2)c2cc(-c3cn4nc(C)ccc4n3)oc2c1 [Example 236],1.9 nM
19,COc1cc(OCc2csc(N3CCN(S(=O)(=O)c4ccc(C#N)cc4)CC3)n2)c2cc(-c3cn4nc(C)ccc4n3)oc2c1 [Example 237],3.5 nM
20,CCc1sc(N2CCOCC2)nc1COc1cc(OC)cc2oc(-c3cn4nc(C)ccc4n3)cc12 [Example 238],0.73 nM
21,COc1cc(OCc2csc(C3CCC(F)(F)CC3)n2)c2cc(-c3cn4nc(C)ccc4n3)oc2c1 [Example 239],0.58 nM
22,COc1cc(OCc2csc(C3(c4cccc(Cl)c4)CCOCC3)n2)c2cc(-c3cn4nc(C)ccc4n3)oc2c1 [Example 240],6.9 nM
23,COc1cc(OCc2csc(C3(c4ccc(Cl)cc4)CCOC3)n2)c2cc(-c3cn4nc(C)ccc4n3)oc2c1 (stereo not drawn) [Example 241],1.2 nM
24,COc1cc(OCc2csc(C3(c4ccc(C)cc4)CCOCC3)n2)c2cc(-c3cn4nc(C)ccc4n3)oc2c1 [Example 242],0.59 nM
